According to PubChem BioAssay AID330 (DTP/NCI, 2004):
Several values for one entry are separate records, joined by “and”; a condition that tells them apart may be missing. Equal entries are not always repeated. Inconclusive results and toxic doses are left out.

Tested on: P388 leukemia ip, CD2F1 mice, survival T/C
Experiment: NCI In Vivo Anticancer Drug Screen. Data for tumor model P388 Leukemia (intraperitoneal) in CD2F1 (CDF1) mice
Details: endpoint: median survival time, higher = longer survival
Procedure, shortened: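 Mice carrying the transplanted tumor received test compound or vehicle. Survival was recorded in each group, and the value is the treated-group measurement divided by that of the vehicle-treated control group.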

[1] = dose: 100.0 mg/kg/injection, schedule: Q01DX001 (ip), vehicle: saline with Tween-80
[2] = dose: 50.0 mg/kg/injection, schedule: Q01DX009 (ip), vehicle: Klucel (hydroxypropylcellulose) (HPC)
[3] = dose: 200.0 mg/kg/injection, schedule: Q01DX009 (ip), vehicle: Klucel (hydroxypropylcellulose) (HPC)
[4] = dose: 50.0 mg/kg/injection, schedule: Q01DX009 (ip), vehicle: saline with Tween-80
[5] = dose: 100.0 mg/kg/injection, schedule: Q01DX009 (ip), vehicle: saline with Tween-80
[6] = dose: 200.0 mg/kg/injection, schedule: Q01DX009 (ip), vehicle: saline with Tween-80
[7] = dose: 50.0 mg/kg/injection, schedule: Q01DX005 (ip), vehicle: Klucel (hydroxypropylcellulose) (HPC)
[8] = dose: 100.0 mg/kg/injection, schedule: Q01DX005 (ip), vehicle: Klucel (hydroxypropylcellulose) (HPC)
[9] = dose: 200.0 mg/kg/injection, schedule: Q01DX005 (ip), vehicle: Klucel (hydroxypropylcellulose) (HPC)
[10] = dose: 6.25 mg/kg/injection, schedule: Q01DX009 (ip), vehicle: saline with Tween-80
[11] = dose: 25.0 mg/kg/injection, schedule: Q01DX009 (ip), vehicle: saline with Tween-80

C=C1C(=O)OC2/C=C(\C)CC/C=C(/C(=O)OC)C(OC(C)=O)C(OC(=O)C(C)(O)C(C)O)C12 (centres undefined)
T/C (dose: 3.0 mg/kg/injection, schedule: Q01DX009 (ip), vehicle: Klucel (hydroxypropylcellulose) (HPC)): 116 % of control | T/C (dose: 12.0 mg/kg/injection, schedule: Q01DX009 (ip), vehicle: Klucel (hydroxypropylcellulose) (HPC)): 122 % of control | T/C (dose: 24.0 mg/kg/injection, schedule: Q01DX009 (ip), vehicle: Klucel (hydroxypropylcellulose) (HPC)): 120 % of control

Cc1c(NC(=O)CCCl)c(=O)oc2c(C)c3occc(=O)c3cc12
T/C [1]: 100 % of control | T/C (dose: 200.0 mg/kg/injection, schedule: Q01DX001 (ip), vehicle: saline with Tween-80): 99 % of control | T/C (dose: 400.0 mg/kg/injection, schedule: Q01DX001 (ip), vehicle: saline with Tween-80): 90 % of control

CC1CCCC(C)N1NC(=O)C(C)(C)C (centres undefined)
T/C (dose: 50.0 mg/kg/injection, schedule: Q01DX005 (ip), vehicle: saline): 99 % of control | T/C (dose: 100.0 mg/kg/injection, schedule: Q01DX005 (ip), vehicle: saline): 115 % of control | T/C (dose: 200.0 mg/kg/injection, schedule: Q01DX005 (ip), vehicle: saline): 101 % of control

C#CC(OS(=O)(=O)C(F)(F)F)=C(C)C
T/C (dose: 50.0 mg/kg/injection, schedule: Q01DX005 (ip), vehicle: saline with Tween-80): 99 % of control | T/C (dose: 100.0 mg/kg/injection, schedule: Q01DX005 (ip), vehicle: saline with Tween-80): 100 % of control | T/C (dose: 200.0 mg/kg/injection, schedule: Q01DX005 (ip), vehicle: saline with Tween-80): 100 % of control

CC1S/C(=N\N=C\c2ccc(Cl)cc2)N=C1c1c(O)c2ccccc2oc1=O (centres undefined)
T/C (dose: 60.0 mg/kg/injection, schedule: Q01DX005 (ip), vehicle: Klucel (hydroxypropylcellulose) (HPC)): 93 % of control | T/C (dose: 60.0 mg/kg/injection, schedule: Q02DX002 (ip), vehicle: Klucel (hydroxypropylcellulose) (HPC)): 91 % of control | T/C (dose: 120.0 mg/kg/injection, schedule: Q01DX005 (ip), vehicle: Klucel (hydroxypropylcellulose) (HPC)): 91 % of control | T/C (dose: 120.0 mg/kg/injection, schedule: Q02DX002 (ip), vehicle: Klucel (hydroxypropylcellulose) (HPC)): 94 % of control | T/C (dose: 240.0 mg/kg/injection, schedule: Q01DX005 (ip), vehicle: Klucel (hydroxypropylcellulose) (HPC)): 86 % of control | T/C (dose: 240.0 mg/kg/injection, schedule: Q02DX002 (ip), vehicle: Klucel (hydroxypropylcellulose) (HPC)): 94 % of control

Cc1[nH]nc2c(Cc3ccccc3)n[nH]c(=O)c12
T/C [2]: 102 % of control | T/C (dose: 100.0 mg/kg/injection, schedule: Q01DX009 (ip), vehicle: Klucel (hydroxypropylcellulose) (HPC)): 104 % of control | T/C [3]: 112 % of control

CN1c2ccccc2C(C)(C)C12Cc1c(N)ncc(C#N)c1N2 (centres undefined)
T/C [4]: 91 % of control | T/C [5]: 88 % of control | T/C [6]: 93 % of control

CC(N=c1cc2n(-c3ccc(Cl)cc3)c3ccccc3nc-2cc1Nc1ccc(Cl)cc1)c1ccccc1 (centres undefined)
T/C (dose: 1.87 mg/kg/injection, schedule: Q01DX005 (ip), vehicle: saline with Tween-80): 98 % of control | T/C (dose: 3.75 mg/kg/injection, schedule: Q01DX005 (ip), vehicle: saline with Tween-80): 101 % of control | T/C (dose: 7.5 mg/kg/injection, schedule: Q01DX005 (ip), vehicle: saline with Tween-80): 104 % of control and 86 % of control | T/C (dose: 240.0 mg/kg/injection, schedule: Q01DX005 (ip), vehicle: saline with Tween-80): 88 % of control

CC(=O)c1cn[nH]c1NC(=O)c1ccccc1
T/C (dose: 8.75 mg/kg/injection, schedule: Q01DX005 (ip), vehicle: Klucel (hydroxypropylcellulose) (HPC)): 103 % of control | T/C (dose: 17.5 mg/kg/injection, schedule: Q01DX005 (ip), vehicle: Klucel (hydroxypropylcellulose) (HPC)): 103 % of control | T/C (dose: 35.0 mg/kg/injection, schedule: Q01DX005 (ip), vehicle: Klucel (hydroxypropylcellulose) (HPC)): 95 % of control

CC[C@@]1(O)C[C@H](OC2CC(N(C)C)C(OC3CC(O)C(OC4CCC(=O)C(C)O4)C(C)O3)C(C)O2)c2c(cc3c(c2O)C(=O)c2c(O)ccc(O)c2C3=O)[C@H]1C(=O)OC (some centres undefined)
T/C (dose: 1.56 mg/kg/injection, schedule: Q04DX003 (ip), vehicle: saline): 116 % of control | T/C (dose: 2.0 mg/kg/injection, schedule: Q04DX003 (ip), vehicle: saline with Tween-80): 154 % of control and 161 % of control | T/C (dose: 2.59 mg/kg/injection, schedule: Q04DX003 (ip), vehicle: water): 160 % of control | T/C (dose: 4.32 mg/kg/injection, schedule: Q04DX003 (ip), vehicle: saline): 152 % of control and 153 % of control and 160 % of control | T/C (dose: 4.32 mg/kg/injection, schedule: Q04DX003 (ip), vehicle: water): 151 % of control and 169 % of control | T/C (dose: 7.2 mg/kg/injection, schedule: Q04DX003 (ip), vehicle: saline): 164 % of control and 180 % of control | T/C (dose: 8.0 mg/kg/injection, schedule: Q04DX003 (ip), vehicle: saline with Tween-80): 94 % of control and 98 % of control | T/C (dose: 12.0 mg/kg/injection, schedule: Q04DX003 (ip), vehicle: saline): 103 % of control | T/C (dose: 12.0 mg/kg/injection, schedule: Q04DX003 (ip), vehicle: water): 92 % of control

CC(=O)Oc1cccc2c1C(=O)c1c(OC(C)=O)cccc1C2=O
T/C (dose: 1.56 mg/kg/injection, schedule: Q04DX003 (ip), vehicle: Klucel (hydroxypropylcellulose) (HPC)): 99 % of control and 89 % of control | T/C (dose: 3.12 mg/kg/injection, schedule: Q04DX003 (ip), vehicle: Klucel (hydroxypropylcellulose) (HPC)): 97 % of control | T/C (dose: 3.13 mg/kg/injection, schedule: Q04DX003 (ip), vehicle: Klucel (hydroxypropylcellulose) (HPC)): 107 % of control | T/C (dose: 6.25 mg/kg/injection, schedule: Q04DX003 (ip), vehicle: Klucel (hydroxypropylcellulose) (HPC)): 99 % of control and 97 % of control | T/C (dose: 12.5 mg/kg/injection, schedule: Q04DX003 (ip), vehicle: Klucel (hydroxypropylcellulose) (HPC)): 99 % of control and 92 % of control | T/C [2]: 87 % of control | T/C [3]: 87 % of control | T/C (dose: 400.0 mg/kg/injection, schedule: Q01DX009 (ip), vehicle: Klucel (hydroxypropylcellulose) (HPC)): 96 % of control

COC(=O)[C@@]12OC[C@]34[C@H]([C@@H](O)[C@@H]1O)[C@@]1(C)[C@H](O)C(=O)C=C(C)[C@@H]1C[C@H]3OC(=O)C(OC(C)=O)[C@@H]24 (some centres undefined)
T/C (dose: 0.1 micrograms/kg/injection, schedule: Q01DX009 (ip), vehicle: saline + alcohol): 96 % of control | T/C (dose: 0.2 micrograms/kg/injection, schedule: Q01DX009 (ip), vehicle: saline + alcohol): 102 % of control | T/C (dose: 0.5 micrograms/kg/injection, schedule: Q01DX009 (ip), vehicle: saline + alcohol): 105 % of control | T/C (dose: 1.0 micrograms/kg/injection, schedule: Q01DX009 (ip), vehicle: saline + alcohol): 93 % of control | T/C (dose: 2.0 micrograms/kg/injection, schedule: Q01DX009 (ip), vehicle: saline + alcohol): 100 % of control | T/C (dose: 4.0 micrograms/kg/injection, schedule: Q01DX009 (ip), vehicle: saline + alcohol): 88 % of control

Cc1[nH][nH]c(=O)c1C=Nc1ccccc1
T/C [7]: 103 % of control | T/C [8]: 100 % of control | T/C [9]: 95 % of control

COc1ccc(S(=O)(=O)N=N/C=C2\C=CC=CN2O)cc1OC
T/C (dose: 1.56 mg/kg/injection, schedule: Q01DX009 (ip), vehicle: saline with Tween-80): 104 % of control | T/C (dose: 3.12 mg/kg/injection, schedule: Q01DX009 (ip), vehicle: saline with Tween-80): 103 % of control | T/C [10]: 103 % of control | T/C (dose: 12.5 mg/kg/injection, schedule: Q01DX009 (ip), vehicle: saline with Tween-80): 100 % of control and 103 % of control and 90 % of control | T/C (dose: 25.0 mg/kg/injection, schedule: Q01DX001 (ip), vehicle: saline with Tween-80): 100 % of control | T/C [11]: 110 % of control and 114 % of control and 117 % of control | T/C (dose: 50.0 mg/kg/injection, schedule: Q01DX001 (ip), vehicle: saline with Tween-80): 109 % of control | T/C [4]: 119 % of control | T/C [1]: 118 % of control

NC(C(=O)O)/C1=C/CCCCCC1 (centres undefined)
T/C (dose: 25.0 mg/kg/injection, schedule: Q01DX005 (ip), vehicle: Klucel (hydroxypropylcellulose) (HPC)): 106 % of control | T/C [7]: 101 % of control | T/C [8]: 98 % of control | T/C [9]: 101 % of control

CCSc1ncc(Br)c(Sc2nc(N)nc3nc[nH]c23)n1
T/C (dose: 4.0 mg/kg/injection, schedule: Q04DX003 (ip), vehicle: saline with Tween-80): 113 % of control | T/C [10]: 122 % of control | T/C (dose: 16.5 mg/kg/injection, schedule: Q04DX003 (ip), vehicle: saline with Tween-80): 150 % of control | T/C [11]: 90 % of control | T/C (dose: 25.0 mg/kg/injection, schedule: Q04DX003 (ip), vehicle: saline with Tween-80): 150 % of control and 159 % of control | T/C (dose: 100.0 mg/kg/injection, schedule: Q04DX003 (ip), vehicle: saline with Tween-80): 122 % of control

CC(C)NCC(O)c1ccc(O)c(NC=O)c1 (centres undefined)
T/C [4]: 102 % of control | T/C [5]: 104 % of control | T/C [6]: 100 % of control
